Entries after “also recorded” stand apart in the source; their conditions may differ.
Legend:
[1] = tested on: CTGF promoter; experiment: CTGF-luciferase reporter in RaVSMCs; format: cell-based, rat
Text: (§1) Activation of TEAD transcription factors in response to YAP binding induces the expression of many genes that encode proteins known to be involved in promoting cell proliferation and migration (see Supplement Figure 14). The best characterized TEAD target genes associated with the promotion of cell proliferation and migration are CCN1 and CTGF.[39],[59],[60] […] We therefore tested whether CPD3 inhibited the promoter activity of known TEAD target genes, CCN1 and CTGF, in the HeLa transformed cell line and primary rat VSMCs (RaVSMCs). Cells were transfected with plasmids expressing bioluminescent firefly luciferase reporter genes under the control of either the CCN1 or CTGF promoter regions. […] As both CCN1 and CTGF are classical TEAD target genes, this is consistent with the inhibition of TEAD activity by CPD3.
Figure 9 Compound 3.1 inhibits TEAD target gene expression, cell proliferation, and cell migration in RaVSMCs. […] Total RNA was analyzed for mRNA levels of TEAD-target genes (D) or constitutive housekeeping genes (E) by qRT-PCR. […] Total cell lysates were analyzed for CCN1 protein expression by Western blotting (F). […] RaVSMCs (I) or HuVSMC (J) were treated with indicated concentrations of compound 3.1 and cell migration quantified using IncuCyte real time migration assay (n = 4). […]

[2] = tested on: HeLa cells; experiment: Real-time IncuCyte scratch wound migration assay in HeLa cells; format: cell-based, human
Protocol: Cell proliferation was measured using the Click-iT EdU 488 assay (Sigma-Aldrich). Briefly, the cells were treated with indicated concentrations of compounds for 24 h with the last 4 h being in the presence of 10 μM EdU. The cells were fixed in 4% formaldehyde and stained for EdU incorporation, following the kit’s standard protocol. The cells were counterstained with Hoechst 33342 nucleic acid for 20 min. Fluorescent images of at least three fields of view per well were counted using ImageJ software. Real-time analysis of cell migration was performed using an IncuCyte ZOOM live cell imaging system (Essen BioScience) according to the manufacturer’s instructions. Briefly, the cells were seeded (1.2 × 10^4 cells/well for HeLa cells, 1.5 × 10^4 cells/well for RaVSMCs, and 1 × 10^4 cells/well) into ImageLock 96-well plates. After 36 h, the cells were pretreated overnight with indicated concentrations of compounds. The wells were scratched using a WoundMaker tool, and the media were replaced containing test compounds. Phase contrast images of cell migration into the wounded area were acquired hourly for 24 h. Relative wound confluence was calculated using the Cell Migration Image analysis module of the IncuCyte ZOOM software.

[3] = tested on: TEAD-dependent transcriptional activity; experiment: 8xTEAD secreted nanoluciferase (TEAD-NLUC) reporter assay in HeLa cells; format: cell-based, human; settings: HeLa TEAD-NLUC, 6 h
Text: The shortlisted sets of 16 compounds were first assayed for their ability to inhibit TEAD-dependent transcriptional activity in HeLa cells that had been transduced with a recombinant lentiviral vector expressing secreted bioluminescent nanoluciferase (NLUC) reporter gene enzyme, which is expressed under the control of a promoter region containing eight TEAD DNA-binding elements (TEAD-NLUC).
Compounds were initially screened for ability to inhibit TEAD-dependent transcriptional activity in HeLa cells transduced with a lentiviral vector expressing secreted nanoluciferase under the control of multimerized TEAD consensus elements (5′-[…]-3′). 8xTEAD NanoLuc was generated by cloning the 8xTEAD promoter from the 8xTEAD-Luc plasmid (Addgene #34615) into the pENTR gateway entry vector (Promega). This was then recombined into pLNT-sec-Nluc-2A-eGFP destination vector (supplied by Tristan McKay; University of Manchester). Lentiviruses were generated by Viafect-mediated co-transfection of pLNT8x-TEAD-sec-Nluc-2A-eGFP, Δ8.9, and VSV-G vectors into HEK293T cells (ATCC), and lentiviral-containing culture supernatants were used to infect HeLa cells in the presence of 6 μg/mL polybrene. For compound screening, 8xTEAD NanoLuc-transduced HeLa cells were seeded at 2 × 10^4 cells/well in 96-well plates. After 48 h, the cells were washed in PBS and incubated with test compounds at the indicated concentrations for 2 h. The cells were washed again in PBS and incubated with the compound for a further 4 h. Conditioned culture medium (50 μL) was assayed for secreted nanoluciferase activity using NanoGlo activity assays kit (Promega) and a Glomax Discover luminometer.

[4] = tested on: CTGF promoter; experiment: CTGF-luciferase reporter in HeLa cells; format: cell-based, human; settings: 6 h, indicated concentrations
Text: as §1
TNT1-minP reporter containing the Troponin-T minimal promoter was generated by digesting 8xGTIIC-luciferase plasmid (Addgene #34615) with Kpn1 and BglII to remove the TEAD elements, followed by blunt end re-ligation. A 2.177 kb fragment of the human CCN1 promoter containing two proximal TEAD elements (Hg19;chr1:86044316–chr1:86046493) was described previously[39] and cloned into pGL4-luciferase (Promega). […]

[5] = biological target: T1, nano-luciferase enzyme (Oplophorus gracilirostris, UniProt Q9GV45, A31E/A60N/A81I/F95D/I117V/K70R/L54V/L99Q/M102K/N193R/P142E/Q151K/Q38R/Q45L/V71I/Y165I); experiment: Direct inhibition of nanoluciferase enzyme in conditioned media; format: biochemical; settings: conditioned media containing nano-luciferase, indicated concentrations
T1 construct: heterologous secretion signal (sec-Nluc) (N); expressed in transfected cells; probably the TEAD-NLUC HeLa reporter cells
T1 sequence (Q9GV45 other isoform, or with tags, fused parts or gaps with the stated changes): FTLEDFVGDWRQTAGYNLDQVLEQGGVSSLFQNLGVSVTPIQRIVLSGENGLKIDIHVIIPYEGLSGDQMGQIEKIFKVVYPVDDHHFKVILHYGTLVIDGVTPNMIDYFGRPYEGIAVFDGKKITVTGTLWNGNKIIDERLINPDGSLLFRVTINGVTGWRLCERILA
Protocol: Cell conditioned media containing nano-luciferase enzyme was incubated with the indicated
concentrations of CPD3 (A) or CPD3.1 (B) and nano-luciferase activity assayed.
(1 picture or pasted object on this page, not shown here)

SMILES | IC50 ([1]; Rattus norvegicus, 6 hr, read-out: IC50, CTGF-LUC (as printed in Figure 9C)) [µM] | cell migration (scratch wound) [2] | concentration at which TEAD-dependent NLUC secretion was significantly inhibited [3] [µM] | CTGF-luciferase reporter gene activity [4] | direct inhibitory effect on NLUC enzymatic activity [5] | CTGF-luciferase reporter gene activity ([1]; 6 h, indicated concentrations) | IC50 ([3]; Homo sapiens, HeLa, read-out: IC50, TEAD-dependent NLUC secretion) [µM]
Cc1ccc2c(c1)c1c3n2CCNC3CCC1 (centres unmarked) [CPD3.1] | 58 | significantly inhibited HeLa cell migration at 40, 60, and 80 μM | 20 | dose-dependent inhibition | do not non-specifically inhibit nano-luciferase; also recorded: without having any direct inhibitory effect on NLUC activity | – | –
Cc1ccc2c(c1)c1c3n2CCN(CC(O)CN2CCN(C(=O)c4ccco4)CC2)C3CCC1 (centres unmarked) [CPD3] | – | dose-dependently inhibited | 60 | strong and significant dose-dependent inhibition | do not non-specifically inhibit nano-luciferase; also recorded: did not affect cell viability (Supplement Figure 6) or have any direct inhibitory effect on NLUC enzymatic activity | strong and significant dose-dependent inhibition | > 110

Reference: publication PMC6701825, “Antiproliferative and Antimigratory Effects of a Novel YAP–TEAD Interaction Inhibitor Identified Using in Silico Molecular Docking” (Journal of Medicinal Chemistry, 2019)
